Data from ChEMBL document CHEMBL3576796, “A Broad Anti-influenza Hybrid Small Molecule That Potently Disrupts the Interaction of Polymerase Acidic Protein-Basic Protein 1 (PA-PB1) Subunits” (J Med Chem, 2015).
Values after ≈ are worked out from the molar mass of the structure shown. Active and inactive are the calls of the source. The calls are words filed in the database; no cut-off is given here.

How the values were obtained:
Liver microsome = assay: Metabolic stability in human liver microsomes assessed as cytochrome-mediated metabolism after 30 mins by HPLC-MS/MS analysis; type: ADME; details: 0.5 h
[1] = target: PA/PB1 (Influenza A virus (A/Puerto Rico/8/1934(H1N1)), UniProt P03431+P03433)
[2] = Cytotoxicity against MDCK cells assessed as decrease in cell viability by MTT assay; type: cell-based, Canis lupus familiaris; details: dog
[3] = Cytotoxicity against human HEK293T cells assessed as decrease in cell viability by MTT assay; type: cell-based, HEK-293T
Influenza A virus [4] = type: functional, organism-based; details: A/Puerto Rico/8/1934(H1N1), MDCK, 48 h
[5] = Permeability of the compound assessed as passive diffusion from donor compartment to acceptor compartment after 18 hrs by PAMPA assay; type: physicochemical; details: read-out: Peff
[6] = Equilibrium solubility of the compound in phosphate buffer at pH 7.4 after 1 hr; type: physicochemical
[7] = Permeability of the compound assessed as membrane drug retention after 18 hrs by PAMPA assay; type: physicochemical; design: concentration or dose not given beside the values
Influenza B virus [8] = assay: Antiviral activity against Influenza B virus B/Malaysia/2506/04 assessed as reduction in plaque formation after 48 hrs by plaque reduction assay; type: functional; details: B/Malaysia/2506/2004, 48 h
Influenza B virus [9] = assay: Antiviral activity against Influenza B virus B/Lee/40 assessed as reduction in plaque formation after 48 hrs by plaque reduction assay; type: functional, organism-based; details: B/Lee/1940, 48 h
Influenza A virus [10] = type: functional, organism-based; details: A/Puerto Rico/8/1934(H1N1), HEK-293T, 50 uM
Influenza A virus [11] = type: functional, organism-based; details: A/Puerto Rico/8/1934(H1N1), HEK-293T, 50 uM; remark: listed apart in the source
Influenza B virus [12] = assay: Antiviral activity against Influenza B virus B/Bangladesh/333/07 assessed as reduction in plaque formation after 48 hrs by plaque reduction assay; type: functional, organism-based; details: B/Bangladesh/333/07, 48 h
Influenza A virus [13] = type: functional, organism-based; details: A/Puerto Rico/8/1934(H1N1), HEK-293T, 50 uM; remark: listed apart in the source
[14] = Antiviral activity against Influenza A virus A/Wisconsin/67/05 (H3N2) assessed as reduction in plaque formation after 48 hrs by plaque reduction assay; type: functional, Influenza A virus (A/Wisconsin/67/2005(H3N2))
[15] = Antiviral activity against Influenza A virus A/Solomon Island/3/06 (H1N1) assessed as reduction in plaque formation after 48 hrs by plaque reduction assay; type: functional, Influenza A virus (A/Solomon Islands/3/2006(H1N1))
Influenza A virus [16] = type: functional, organism-based; details: A/Puerto Rico/8/1934(H1N1), HEK-293T, 50 uM; remark: listed apart in the source
Influenza A virus [17] = type: functional, organism-based; details: A/Puerto Rico/8/1934(H1N1), MDCK, 48 h; remark: listed apart in the source

Row | SMILES | Drug metabolism (Liver microsome) | IC50 [1] | CC50 [2] | CC50 [3] | EC50 (Influenza A virus [4]) | also measured
1 | CC1=CC(c2ccccc2)n2nc(NC(=O)c3ccc4ccccc4c3)nc2N1 (configuration not stated) | metabolite_notdetected | > 200 µM | > 115 µM | 154 µM | 41 µM | –
2 | NC(=O)c1ncn([C@@H]2O[C@H](CO)[C@@H](O)[C@H]2O)n1 [RIBAVIRIN] | – | – | > 250 µM | > 250 µM | – | –
3 | NC(=O)c1c(NC(=O)c2nc3nc(-c4ccccc4)cc(C(F)(F)F)n3n2)sc2c1CCCC2 | – | 7.5 µM | – | > 250 µM | – | –
4 | COc1ccccc1C(=O)Nc1nc2n(n1)C(c1ccccc1)C=C(C)N2 (configuration not stated) | metabolite_notdetected | > 200 µM | > 250 µM | 240 µM | > 100 µM | –
5 | CC1=CC(c2ccccc2)n2nc(NC(=O)c3cccc(F)c3)nc2N1 (configuration not stated) | metabolite_notdetected | 156 µM | > 250 µM | 220 µM | > 100 µM | –
6 | COc1ccc(C(=O)Nc2nc3nc(C)cc(-c4ccccc4)n3n2)cc1 | metabolite_notdetected | > 200 µM | > 250 µM | 187 µM | 86 µM | –
7 | CC1=CC(c2ccccc2)n2nc(NC(=O)c3ccc(OC(C)C)cc3)nc2N1 (configuration not stated) | metabolite_notdetected | 75 µM | > 250 µM | > 250 µM | > 100 µM | –
8 | COc1ccc(C(=O)Nc2nc3n(n2)C(c2ccccc2)C=C(C)N3)cc1 (configuration not stated) | metabolite_notdetected | 153 µM | > 240 µM | > 250 µM | > 100 µM | Papp at 18 h [5]: 3.52 ×10⁻⁶ cm/s; solubility thermodynamic at 1 h [6]: 13 µg/mL (≈ 36 µM); Activity [7]: 57%
9 | CC1=CC(c2ccccc2)n2nc(NC(=O)c3ccc([N+](=O)[O-])cc3)nc2N1 (configuration not stated) | metabolite_notdetected | 75 µM | > 250 µM | > 250 µM | > 100 µM | –
10 | CC1=CC(c2ccccc2)n2nc(NC(=O)c3ccc(F)cc3)nc2N1 (configuration not stated) | metabolite_notdetected | 138 µM | > 250 µM | 190 µM | > 100 µM | –
11 | Nc1ccc(O)c2c1C(=O)c1c(N)ccc(O)c1C2=O | – | 20.3 µM | – | > 250 µM | 14.5 µM | –
12 | CC1=CC(c2ccccc2)n2nc(NC(=O)c3ccc(-c4ccccc4)cc3)nc2N1 (configuration not stated) | metabolite_notdetected | > 200 µM | > 193 µM | 155 µM | 28 µM | –
13 | CC1=CC(c2ccccc2)n2nc(NC(=O)c3ccc(Cl)cc3)nc2N1 (configuration not stated) | metabolite_notdetected | 95 µM | > 250 µM | > 250 µM | > 100 µM | –
14 | N#CC(c1ccc(Cl)cc1)c1c(Cl)cc(-n2ncc(=O)[nH]c2=O)cc1Cl (configuration not stated) [DICLAZURIL] | – | – | – | – | 31 µM | –
15 | Cc1cc(-c2ccccc2)n2nc(C(=O)Nc3sc4c(c3C(N)=O)CCCCC4)nc2n1 | metabolite_notdetected | 1.1 µM | > 250 µM | > 250 µM | 21 µM | EC50 (Influenza B virus [8]): 17 µM; EC50 (Influenza B virus [9]): 24 µM; Activity (Influenza A virus [10]): Active; Papp at 18 h [5]: 0.61 ×10⁻⁶ cm/s; Activity (Influenza A virus [11]): Active; EC50 (Influenza B virus [12]): 11 µM; Activity (Influenza A virus [13]): Active; EC50 [14]: 7 µM; EC50 [15]: 23 µM; solubility thermodynamic at 1 h [6]: 13 µg/mL (≈ 29.1 µM); Activity (Influenza A virus [16]): inactive; EC50 (Influenza A virus [17]): 21 µM; Activity [7]: 45%
16 | COc1cccc(C(=O)Nc2nc3n(n2)C(c2ccccc2)C=C(C)N3)c1 (configuration not stated) | metabolite_notdetected | 175 µM | > 250 µM | 230 µM | > 100 µM | –
17 | Cc1cc(-c2ccccc2)nc2nc(C(=O)Nc3ccccc3)nn12 | metabolite_notdetected | 128 µM | > 250 µM | > 250 µM | 40 µM | –
18 | COC(=O)C1=C(N)N(c2cccc(Cl)c2C)C2=C(C(=O)CCC2)C1c1ccc2c(c1)OCO2 (configuration not stated) | – | 30.4 µM | – | > 1000 µM | 12.2 µM | –
